Drawing on PubChem BioAssay (NCI), this text covers TGI and GI50 for 15 molecules.

Values joined by “and” are separate entries in the source; they are usually repeats but may differ in a detail not shown here. Equal values may be shown once.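 96-well plates; 48 h exposure; 5 concentrations. Endpoints by linear interpolation between flanking doses. Not reached: highest tested concentration assigned. GI50 marks 50% less growth. TGI marks complete inhibition of growth.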 A value given as a limit tells only on which side of the number the result lay.

Test systems include EKVX NSCLC; M19-MEL melanoma; OVCAR-4 ovarian; RPMI-8226 leukemia; SK-OV-3 ovarian; SN12C renal; SNB-19 CNS; SNB-78 CNS; UO-31 renal.
Common to all, as to assay: growth of human tumour cells (NCI), 48 h

`N#CC12CCC(O)C(CC1)C2=O` (stereo unspecified): the TGI was over 100 µM with EKVX NSCLC; over 100 µM in the assay with M19-MEL melanoma; over 100 µM with OVCAR-4 ovarian; 57.1 µM with RPMI-8226 leukemia; over 100 µM with SK-OV-3 ovarian; over 100 µM in the assay on SN12C renal. The TGI in the assay on SNB-19 CNS, in the assay with SNB-78 CNS and with UO-31 renal was over 100 µM each time.

As for `O=NN(CCCl)C(=O)NCc1ccc[n+]([O-])c1`, the TGI in the assay on EKVX NSCLC, in the assay on M19-MEL melanoma, in the assay on OVCAR-4 ovarian, in the assay on RPMI-8226 leukemia, with SK-OV-3 ovarian and with SN12C renal was over 100 µM throughout. Moreover, the TGI in the assay on SNB-78 CNS is over 100 µM.

For `CC1(c2ccccc2)CC12C(=O)NC(=O)NC2=O` (stereo unspecified), the TGI with EKVX NSCLC, in the assay on M19-MEL melanoma, in the assay on OVCAR-4 ovarian, in the assay on RPMI-8226 leukemia, with SK-OV-3 ovarian and in the assay on SN12C renal was over 100 µM in each case. For the same molecule, the TGI in the assay on SNB-19 CNS, in the assay with SNB-78 CNS and in the assay on UO-31 renal was over 100 µM throughout.

As for `O=C1C2c3[nH]c4ccccc4c3C3CCSCC3C2C(=O)N1c1ccccc1` (stereo unspecified), the TGI in the assay with EKVX NSCLC, in the assay with M19-MEL melanoma, with OVCAR-4 ovarian, with RPMI-8226 leukemia, in the assay on SK-OV-3 ovarian and in the assay on SN12C renal was over 100 µM in each case. Besides, the TGI with SNB-19 CNS, in the assay with SNB-78 CNS and in the assay on UO-31 renal was over 100 µM each time.

As for `COCC1N=C(c2ccc(OC)c(OCc3ccccc3)c2OC)O[C@H]1c1ccccc1` (stereo partly specified), the TGI was over 100 µM in the assay on EKVX NSCLC; 53.8 µM in the assay on M19-MEL melanoma; over 100 µM with OVCAR-4 ovarian; 36.9 µM in the assay with RPMI-8226 leukemia; 96.1 µM with SK-OV-3 ovarian; 66.4 µM in the assay with SN12C renal. For the same molecule, the TGI in the assay on SNB-19 CNS is over 100 µM; in the assay with SNB-78 CNS, 96.2 µM; in the assay with UO-31 renal, 30.1 µM.

For the molecule `CCC12CCC(O)C1N(C)CCC2Sc1ccccc1` (stereo unspecified), the TGI in the assay with EKVX NSCLC, in the assay with M19-MEL melanoma, in the assay on OVCAR-4 ovarian, in the assay on RPMI-8226 leukemia, in the assay with SK-OV-3 ovarian and in the assay on SN12C renal was over 100 µM in each case. For the same molecule, the TGI with SNB-19 CNS, with SNB-78 CNS and in the assay with UO-31 renal was over 100 µM throughout.

Regarding `C=CC[P@@]1(=O)O[C@H](c2ccccc2)C(C)N1C(C)C` (stereo partly specified), the TGI with EKVX NSCLC, in the assay with M19-MEL melanoma, in the assay on OVCAR-4 ovarian, in the assay on RPMI-8226 leukemia, in the assay with SK-OV-3 ovarian and in the assay on SN12C renal was over 100 µM in each case. Further, the TGI with SNB-19 CNS, in the assay with SNB-78 CNS and with UO-31 renal was over 100 µM in each case.

In the case of `Brc1nc2c3ccccc3ncn2c1Br`, the TGI in the assay on EKVX NSCLC was 95.9 µM; in the assay with M19-MEL melanoma, over 100 µM; in the assay with OVCAR-4 ovarian, 42.7 µM; with RPMI-8226 leukemia, over 100 µM; with SK-OV-3 ovarian it was over 100 µM; in the assay on SN12C renal, over 100 µM. Also, the TGI with SNB-19 CNS, in the assay with SNB-78 CNS and in the assay with UO-31 renal was over 100 µM in each case.

Take `Cc1c2cc[n+](C)cc2c(C)c2c1[nH]c1ccc(OC(C)C)cc12`: the TGI with EKVX NSCLC is over 100 µM; with M19-MEL melanoma it was 6.14 µM and 7.31 µM; in the assay on OVCAR-4 ovarian it was 17.4 µM and > 45.2 µM; in the assay with RPMI-8226 leukemia, 36.9 µM and > 60.5 µM; in the assay on SK-OV-3 ovarian it was over 85.5 µM; in the assay on SN12C renal, 7.69 µM and 9.59 µM. Further, the TGI in the assay on SNB-19 CNS is 5.6 µM and 14.3 µM; with SNB-78 CNS it was 6.56 µM and > 25.2 µM; with UO-31 renal, over 100 µM. The GI50 is 1.98 µM and 4.47 µM with SK-OV-3 ovarian; 0.776 µM and 1.91 µM with SNB-19 CNS; 0.427 µM and 3.93 µM in the assay on SNB-78 CNS.

In the case of `COc1cccc(/C=C\c2cc(OC)c(OC)c(OC)c2)c1`, the TGI in the assay on EKVX NSCLC is over 100 µM; in the assay on M19-MEL melanoma, over 100 µM; with OVCAR-4 ovarian, over 100 µM; in the assay with RPMI-8226 leukemia, 42.3 µM; in the assay on SK-OV-3 ovarian, over 100 µM; with SN12C renal, over 100 µM. The TGI was over 100 µM in the assay with SNB-19 CNS, 58.9 µM in the assay on SNB-78 CNS and 33 µM in the assay with UO-31 renal.

Regarding `COC(=O)[C@H](C)[C@H]1CC[C@@](C)([C@H]2CC3C(C)(C)[C@H]4CCC(C)=C[C@H]4C[C@@]3(C)O2)OO1` (stereo partly specified), the TGI was 27.6 µM in the assay with EKVX NSCLC; 28.8 µM in the assay on M19-MEL melanoma; 30.1 µM in the assay on OVCAR-4 ovarian; 18.4 µM with RPMI-8226 leukemia; 56.6 µM with SK-OV-3 ovarian; 24 µM in the assay on SN12C renal. Besides, the results for the TGI in the assay on SNB-19 CNS, in the assay on SNB-78 CNS and with UO-31 renal were 28.2 µM, 28.9 µM and 19.2 µM, respectively.

As for `CC1=CCP(C(F)(F)F)P(C(F)(F)F)C1` (stereo unspecified), the TGI with EKVX NSCLC, in the assay with M19-MEL melanoma, in the assay on OVCAR-4 ovarian, with RPMI-8226 leukemia, with SK-OV-3 ovarian and in the assay on SN12C renal was over 100 µM throughout. Also, the TGI with SNB-19 CNS, in the assay on SNB-78 CNS and in the assay on UO-31 renal was over 100 µM each time.

`COC1CCC2C(=O)CCCC2O1` (stereo unspecified): the TGI with EKVX NSCLC, in the assay on M19-MEL melanoma, with OVCAR-4 ovarian, in the assay on RPMI-8226 leukemia, in the assay on SK-OV-3 ovarian and in the assay with SN12C renal was over 100 µM throughout. In addition, the TGI with SNB-19 CNS, in the assay with SNB-78 CNS and with UO-31 renal was over 100 µM each time.

Turning to `CCCCCCC(O)C/C=C/CCCCCC/C(C(=O)OC)=C(/O)C(=O)OCC` (stereo unspecified), the TGI with EKVX NSCLC, with M19-MEL melanoma, in the assay with OVCAR-4 ovarian, with RPMI-8226 leukemia, with SK-OV-3 ovarian and with SN12C renal was over 100 µM each time. Further, the TGI in the assay on SNB-19 CNS, with SNB-78 CNS and in the assay on UO-31 renal was over 100 µM each time.

For the molecule `CN(OC(=O)CC(=O)c1ccccc1)C(=O)Cc1ccccc1`, the TGI in the assay with EKVX NSCLC, with M19-MEL melanoma, in the assay with OVCAR-4 ovarian, with RPMI-8226 leukemia, in the assay with SK-OV-3 ovarian and with SN12C renal was over 100 µM each time. Besides, the TGI with SNB-19 CNS, with SNB-78 CNS and in the assay on UO-31 renal was over 100 µM throughout.
